For assay [1], the target named is T1, BRAF V600E (Homo sapiens, UniProt P15056+Q96SW2, V600E).
T1 construct: knock-in of the HiBiT tag to the endogenous BRAF V600E locus; host or cells: A375.10 (A375 clonal line, CRISPR HiBiT knock-in at the endogenous BRAF V600E locus)
Nature of the assay: BRAF V600E HiBiT Degradation Assay. In kind it is cell-based. Conditions: A375.10 cells, BRAF V600E; for Emax: read-out: HiBiT-Degradation A375.10 BRAF 2 hours Emax. How it is done:
Compounds of this invention were tested for degradation of mutant BRAF V600E using the HiBiT assay, a luminescence-based assay for quantification of cellular protein levels using the Nano-Glo® HiBiT Lytic Detection System (Catalog No. N3050, Promega, Madison, WI USA). This assay utilizes the HiBiT tag on a protein of interest, which creates a luminescent signal in the presence of a complementing peptide and its substrate, the quantification of which is proportional to the amount of HiBiT-tagged protein in the cell.
The cell line A375, which is homozygous for the BRAF V600E mutation, was purchased from ATCC (Catalog No. CRL-1619, Manassas, VA, USA). A375 cells were engineered to express HiBiT tagged BRAF V600E by CRISPR knock-in of the HiBiT tag to the endogenous BRAF V600E locus, followed by selection of a clonal population containing the appropriate knock-in (referred to here as cell line A375.10). A375.10 cells were maintained at 37° C. in an atmosphere of 5% CO2 in Dulbecco's modified Eagle Medium (DMEM) with high glucose (Catalog No. 11965092), supplemented with 10% fetal bovine serum (FBS; Catalog No. 10437036), and 10 mM HEPES (Catalog No. 15630130), all obtained from Thermofisher Scientific (Waltham, MA, USA). Cell culture flasks and 384-well microplates were acquired from VWR (Radnor, PA, USA).
Test compounds were prepared by dissolving neat compounds in DMSO (Catalog No. D8418, Sigma-Aldrich, Inc., St. Louis, MO, USA) to generate 10 mM stock solutions, which were serially diluted (half log) in DMSO to generate an 11-point dose series (1000× final treatment concentration) in a 384-Well Low Dead Volume Microplate (Catalog No. LP-0200, Labcyte, San Jose, CA, USA). Using the Echo 550 Acoustic Liquid Handler (Labcyte), 30 nL of serially diluted compound solutions were dispensed in duplicate to 384-well TC-treated microplates (Catalog No. 3571, Corning, Glendale, CA, USA) and 30 nL of DMSO was dispensed to control wells. A375.10 cells resuspended in growth media without phenol red (Catalog No. 21063-029, Thermofisher Scientific) were then added to 384-well plates containing the 11-point dose series of compounds in duplicate (maximum 10 μM concentration for final treatment) at a density of 12,000 cells/well in 30 μl. Plates were then spun briefly, and cells were incubated with compound at 37° C. for 2 hours, 6 hours, or 24 hours.
Following the appropriate treatment time, Nano-Glo® HiBiT Lytic Assay reagents were added to the cells per the manufacturer's instructions by adding 30 μl of reagent per well, and the luminescence signal was acquired by plate reader. Cells treated with DMSO only (no test compound treatment) were used as the negative control (N). Media only (no cells added) with Nano-Glo reagent addition was used as the background or positive control (P). The percent response of compound treated samples were calculated by subtracting out the background signal (P) and normalizing to the DMSO control (N) as follows.
% Response=100×(Treated Signal−Average (P))/(Average (N)−Average (P)).
Data were analyzed with a 4-parameter logistic fit to generate sigmoidal dose-response curves. The DC50 is the concentration of compound at which 50% of the cellular BRAF V600E has been degraded. The Emax, or maximum effect of each compound, represents the amount of residual protein remaining in the cell following compound treatment. The IP, or inflection point of the dose-response curve, is the concentration of compound at which 50% of the observed degradation response is achieved.
The experiment was conducted at least once for each compound. If the experiment was conducted multiple times, the data shown in the table is the average of the two or more experiments.

In assay [2] the test system is A375-NRAS^Q61K cells. Nature of the assay: CTGlo Cell Viability Assay, A375-NRAS^Q61K (A375.11) cells, 96 hours. In kind it is cell-based, human. Conditions: A375.11 (A375-NRAS^Q61K) cells; for CTGlo A375.11 96 hours Emax / Emax: lowest % viability achieved. The procedure: Compounds of this invention were tested for their effect on the viability of A375-NRAS^Q61K cells by quantification of ATP using the CellTiter-Glo® 2.0 Cell Viability Assay (Catalog No. G9243, Promega, Madison, WI, USA). This assay produces a luminescent signal in the presence of ATP, which is indicative of metabolically active cells, making the luminescence readout proportional to the number of viable cells.
A375-NRAS^Q61K cells (harboring BRAF homozygous V600E mutation and NRAS homozygous Q61K mutation) were purchased from ATCC (Catalog No. CRL-1619IG-2, Manassas, VA, USA). A375-NRAS^Q61K cells (also referred to here as A375.11) were maintained at 37° C. in an atmosphere of 5% CO2 in Dulbecco's modified Eagle Medium (DMEM) with high glucose (Catalog No. 11965092), supplemented with 10% fetal bovine serum (FBS; Catalog No. 10437036), and 10 mM HEPES (Catalog No. 15630130), all obtained from Thermofisher Scientific (Waltham, MA, USA). Cell culture flasks and 384-well microplates were acquired from VWR (Radnor, PA, USA).
Test compounds were prepared by dissolving neat compounds in DMSO (Catalog No. D8418, Sigma-Aldrich, Inc., St. Louis, MO, USA) to generate 10 mM stock solutions, which were serially diluted (half log) in DMSO to generate an 11-point dose series (1000× final treatment concentration) in a 384-Well Low Dead Volume Microplate (Catalog No. LP-0200, Labcyte, San Jose, CA, USA). Using the Echo 550 Acoustic Liquid Handler (Labcyte), 50 nL of serially diluted compound solutions were dispensed in duplicate to 384-well TC-treated microplates (Catalog No. 3571, Corning, Glendale, CA, USA) and 50 nL of DMSO was dispensed to control wells. A375-NRAS^Q61K cells were resuspended in growth media and added to 384-well plates containing a […] of compounds in duplicate (maximum 10 μM concentration for final treatment) at a density of 250 cells/well in 50 μl. Cells were also plated to a 384-well plate with no compound treatment, to which CellTiter-Glo® reagent was added and luminescence was read right after plating to act as a baseline signal at time of plating (To). Plates treated with compound were then spun briefly, and cells were incubated with compound at 37° C. for 96 hours.
After 96 hours compound treatment, CellTiter-Glo® reagent was added to the cells at 25 μl per well and luminescence was read out on the PHERAstar plate reader (BMG Labtech, Ortenberg, Germany). Cells treated with DMSO only (no test compound treatment) were used as the negative control (N). DMSO treated cells with no CellTiter-Glo® reagent added were used as the background or positive control (P). Viability was determined by subtracting out the average background signal (P) and normalized to the average untreated signal (N) set at 100%.
Data were analyzed with a 4-parameter logistic fit to generate sigmoidal dose-response curves. The half-maximal inhibition of cell growth (GI50) is the concentration at which the fitted curve crosses 50%. The Emax, or maximum effect of each compound, represents the lowest % viability achieved following compound treatment.

Where [3] appears, read: 2 hours, inflection point, read-out: HiBiT-Degradation A375.10 BRAF 2 hours IP.
Where [4] appears, read: 2 hours, read-out: HiBiT-Degradation A375.10 BRAF 2 hours DC50.
The mark [5] stands for this setting: 2 hours, residual protein remaining.

Where two headings read alike, the source gives them in different places.

T1 sequence (P15056 whole entry V600E): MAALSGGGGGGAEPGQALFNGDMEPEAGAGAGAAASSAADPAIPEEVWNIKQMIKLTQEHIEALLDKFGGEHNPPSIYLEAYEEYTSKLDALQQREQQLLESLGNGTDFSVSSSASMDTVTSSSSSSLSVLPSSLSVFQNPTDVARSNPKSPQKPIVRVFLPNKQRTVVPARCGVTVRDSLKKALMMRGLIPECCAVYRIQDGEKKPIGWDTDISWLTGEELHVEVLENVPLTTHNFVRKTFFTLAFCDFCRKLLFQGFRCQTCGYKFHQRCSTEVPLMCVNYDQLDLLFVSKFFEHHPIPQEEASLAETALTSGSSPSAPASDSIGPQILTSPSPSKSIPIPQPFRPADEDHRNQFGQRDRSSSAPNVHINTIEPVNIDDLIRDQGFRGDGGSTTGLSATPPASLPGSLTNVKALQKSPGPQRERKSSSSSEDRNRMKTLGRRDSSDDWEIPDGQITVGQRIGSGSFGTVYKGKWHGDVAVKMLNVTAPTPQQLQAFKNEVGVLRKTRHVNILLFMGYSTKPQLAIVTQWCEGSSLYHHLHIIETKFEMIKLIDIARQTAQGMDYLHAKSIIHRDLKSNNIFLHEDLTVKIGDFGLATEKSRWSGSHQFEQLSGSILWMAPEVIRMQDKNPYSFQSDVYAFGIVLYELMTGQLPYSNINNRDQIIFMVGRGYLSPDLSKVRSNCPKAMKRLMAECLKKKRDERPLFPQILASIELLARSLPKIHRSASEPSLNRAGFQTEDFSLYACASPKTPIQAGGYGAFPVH
T1 sequence (Q96SW2 whole entry): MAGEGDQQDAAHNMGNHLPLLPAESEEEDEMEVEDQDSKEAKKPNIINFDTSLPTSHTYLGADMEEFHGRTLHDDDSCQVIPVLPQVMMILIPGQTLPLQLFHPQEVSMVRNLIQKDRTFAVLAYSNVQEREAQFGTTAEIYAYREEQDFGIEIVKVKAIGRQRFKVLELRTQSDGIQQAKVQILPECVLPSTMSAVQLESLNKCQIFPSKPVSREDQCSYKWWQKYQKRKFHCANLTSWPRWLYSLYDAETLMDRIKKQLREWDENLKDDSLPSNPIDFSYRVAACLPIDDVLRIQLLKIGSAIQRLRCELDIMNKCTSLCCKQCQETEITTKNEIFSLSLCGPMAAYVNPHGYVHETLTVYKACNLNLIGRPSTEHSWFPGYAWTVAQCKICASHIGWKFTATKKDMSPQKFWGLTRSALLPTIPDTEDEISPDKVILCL
T1 sequence (Q16531 whole entry partner): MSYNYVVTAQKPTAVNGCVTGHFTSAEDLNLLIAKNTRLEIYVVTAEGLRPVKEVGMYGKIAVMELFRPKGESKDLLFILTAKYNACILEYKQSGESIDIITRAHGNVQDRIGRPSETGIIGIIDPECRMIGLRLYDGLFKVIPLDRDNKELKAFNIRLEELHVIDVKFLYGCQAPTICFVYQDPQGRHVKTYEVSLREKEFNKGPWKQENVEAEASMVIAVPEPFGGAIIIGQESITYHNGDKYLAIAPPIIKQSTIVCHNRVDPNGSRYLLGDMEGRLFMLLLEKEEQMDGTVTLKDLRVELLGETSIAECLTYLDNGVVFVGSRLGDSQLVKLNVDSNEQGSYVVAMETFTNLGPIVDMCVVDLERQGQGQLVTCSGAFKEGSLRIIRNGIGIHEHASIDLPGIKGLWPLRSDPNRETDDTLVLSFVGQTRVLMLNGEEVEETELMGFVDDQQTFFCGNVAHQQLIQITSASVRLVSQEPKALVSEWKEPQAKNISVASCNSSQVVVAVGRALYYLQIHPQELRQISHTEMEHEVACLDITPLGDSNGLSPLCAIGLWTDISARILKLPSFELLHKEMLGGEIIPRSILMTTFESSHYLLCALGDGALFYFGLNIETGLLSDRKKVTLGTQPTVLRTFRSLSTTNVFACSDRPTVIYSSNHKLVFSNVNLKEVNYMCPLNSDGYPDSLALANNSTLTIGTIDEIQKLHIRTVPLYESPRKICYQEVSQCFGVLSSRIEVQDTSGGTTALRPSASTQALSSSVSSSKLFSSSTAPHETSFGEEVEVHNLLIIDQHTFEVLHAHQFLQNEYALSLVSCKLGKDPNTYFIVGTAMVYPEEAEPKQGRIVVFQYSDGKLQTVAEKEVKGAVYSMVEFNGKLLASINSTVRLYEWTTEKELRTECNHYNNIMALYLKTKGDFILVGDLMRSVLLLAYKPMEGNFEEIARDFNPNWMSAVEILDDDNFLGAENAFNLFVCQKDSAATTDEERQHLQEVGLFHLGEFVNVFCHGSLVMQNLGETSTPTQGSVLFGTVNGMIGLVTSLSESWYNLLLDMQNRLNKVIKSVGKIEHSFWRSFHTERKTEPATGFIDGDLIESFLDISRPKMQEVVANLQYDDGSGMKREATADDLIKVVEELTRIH

On to `CCN(C)S(=O)(=O)Nc1ccc(F)c(Oc2ccc3ncn(C4CC5(CCN(C6CCC(c7cc8c(cc7F)c(N7CCC(=O)NC7=O)nn8C)CC6F)CC5)C4)c(=O)c3c2)c1F` (single isomer, unassigned) [Compound 185], for which the DC50 in assay [1] (setting [3]) is less than 1 µM. The DC50 in assay [1] (setting [4]) is more than 10 µM. The “HiBiT-Degradation A375.10 BRAF 2 hours Emax” value in assay [1] (setting [5]) is “** (<90% and >50%)”. In assay [2], the GI50 is more than 10 µM; the “CTGlo A375.11 96 hours Emax” value was “** (<90% and >50%)”.
Take `Cn1nc(N2CCC(=O)NC2=O)c2cc(F)c(N3CC4(CC(N5CCC6(CC5)CC(n5cnc7ccc(Oc8c(F)ccc(NS(=O)(=O)N9CCOCC9)c8C#N)cc7c5=O)C6)C4)C3)cc21` [Compound 262, N-[2-cyano-3-[3-[7-[2-[3-(2,4-dioxohexahydropyrimidin-1-yl)-5-fluoro-1-methyl-indazol-6-yl]-2-azaspiro[3.3]heptan-6-yl]-7-azaspiro[3.5]nonan-2-yl]-4-oxo-quinazolin-6-yl]oxy-4-fluoro-phenyl]morpholine-4-sulfonamide]: the DC50 in assay [1] (setting [3]) and in assay [1] (setting [4]) was less than 1 µM in each case. In addition, the Emax is less than 50% in assay [1] (setting [5]) and 50 to 90% in assay [2] (Homo sapiens, 96 h). In assay [2] (Homo sapiens, 96 h), this compound returned a GI50 of less than 1 µM.
`CCN(C)S(=O)(=O)Nc1ccc(F)c(Oc2ccc3ncn([C@H]4COC5(CCN(CC6CCN(c7cc8c(cc7F)c(N7CCC(=O)NC7=O)nn8C)CC6)CC5)C4)c(=O)c3c2)c1C#N` [Compound 251, (3R)-3-[6-[2-cyano-3-[[ethyl(methyl)sulfamoyl]amino]-6-fluoro-phenoxy]-4-oxo-quinazolin-3-yl]-8-[[1-[3-(2,4-dioxohexahydropyrimidin-1-yl)-5-fluoro-1-methyl-indazol-6-yl]-4-piperidyl]methyl]-1-oxa-8-azaspiro[4.5]decane]: the DC50 in assay [1] (setting [3]) and in assay [1] (setting [4]) was less than 1 µM in each case. In addition, the Emax lay within 50 to 90% in assay [1] (setting [5]) and 50 to 90% in assay [2] (Homo sapiens, 96 h). The same compound registered a 50% growth inhibitory concentration (GI50) in assay [2] (Homo sapiens, 96 h) of 1 to 10 µM.
Take `CCN(C)S(=O)(=O)Nc1ccc(F)c(Oc2ccc3ncc(CC4CCN(C5CCC(c6cc7c(cc6F)c(N6CCC(=O)NC6=O)nn7C)CC5)CC4)nc3c2)c1C#N` (single isomer, unassigned) [Compound 149, 7-[2-cyano-3-[[ethyl(methyl)sulfamoyl]amino]-6-fluoro-phenoxy]-2-[[1-[4-[3-(2,4-dioxohexahydropyrimidin-1-yl)-5-fluoro-1-methyl-indazol-6-yl]cyclohexyl]-4-piperidyl]methyl]quinoxaline]: the DC50 in assay [1] (setting [3]) and in assay [1] (setting [4]) was less than 1 µM each time. The Emax was less than 50% in assay [1] (setting [5]) and 50 to 90% in assay [2] (Homo sapiens, 96 h). Moreover, in assay [2] (Homo sapiens, 96 h), the 50% growth inhibitory concentration (GI50) was more than 10 µM.
For `CCN(C)S(=O)(=O)Nc1ccc(F)c(Oc2ccc3ncnc(OC4CC5(CCN(C6CCC(c7cc8c(cc7F)c(N7CCC(=O)NC7=O)nn8C)CC6)CC5)C4)c3c2)c1C#N` (single isomer, unassigned) [Compound 243, 6-[2-cyano-3-[[ethyl(methyl)sulfamoyl]amino]-6-fluoro-phenoxy]-4-[[7-[4-[3-(2,4-dioxohexahydropyrimidin-1-yl)-5-fluoro-1-methyl-indazol-6-yl]cyclohexyl]-7-azaspiro[3.5]nonan-2-yl]oxy]quinazoline], the DC50 is less than 1 µM in assay [1] (setting [3]) and 1 to 10 µM in assay [1] (setting [4]). Moreover, the Emax lay in the range of 50 to 90% in assay [1] (setting [5]) and 50 to 90% in assay [2] (Homo sapiens, 96 h). Besides, the GI50 in assay [2] (Homo sapiens, 96 h) was in the range of 1 to 10 µM.
For the compound `CCN(C)S(=O)(=O)Nc1ccc(F)c(Oc2ccc3ncn([C@H]4COC5(CCN(C6CCC(c7cc8c(cc7F)c(N7CCC(=O)NC7=O)nn8C)CC6O)CC5)C4)c(=O)c3c2)c1C#N` (single isomer, unassigned) [Compound 45], the DC50 in assay [1] (setting [3]) is less than 1 µM; in assay [1] (setting [4]) it was less than 1 µM; in assay [1] (6 hours, inflection point, read-out: HiBiT-Degradation A375.10 BRAF 6 hours IP), less than 1 µM; in assay [1] (6 hours, read-out: HiBiT-Degradation A375.10 BRAF 6 hours DC50), less than 1 µM; in assay [1] (HiBiT, 24 hours, read-out: HiBiT-Degradation A375.10 BRAF 24 hours DC50), less than 1 µM; in assay [1] (HiBiT, 24 hours, read-out: HiBiT-Degradation A375.10 BRAF 24 hours IP), less than 1 µM. For the same compound, the “HiBiT-Degradation A375.10 BRAF 2 hours Emax” value in assay [1] (setting [5]) is on record as “*** (<=50%)”. For the same compound, the “HiBiT-Degradation A375.10 BRAF 6 hours Emax” value in assay [1] (6 hours, residual protein remaining) is “*** (<=50%)”. In addition, the “HiBiT-Degradation A375.10 BRAF 24 hours Emax” value in assay [1] (HiBiT, 24 hours) was “*** (<=50%)”. This compound registered a GI50 in assay [2] of less than 1 µM. The “CTGlo A375.11 96 hours Emax” value in assay [2] is recorded as “*** (<=50%)”.

For orientation: GI50 means the concentration giving 50% growth inhibition. A higher GI50 goes with lower sensitivity of the cells.

(Values after patent publication US20260297060A1, “COMPOUNDS FOR THE DEGRADATION OF MUTANT BRAF” (C4 THERAPEUTICS, INC., priority 2023, published 2026).)
